Data reported in US20260250318A1, “COMPOSITIONS AND METHODS FOR CROSSING THE BLOOD BRAIN BARRIER” (VOYAGER THERAPEUTICS, INC., priority 2022, published 2026).

Key:
[1] = test system: brains, heart, liver, muscle, and DRG of the NHPs; test: Maturation of TTM-001 and TTM-002 capsids, NGS enrichment in NHP tissues; assay type: in vivo; conditions: relative to AAV9 control
How it was run: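 Variants carry mutations within and flanking the loop IV peptide insert: positions 450–466 were triplet-randomized, while positions 449–466 received low-frequency point mutations. The combined pool went into two NHPs, and each peptide was scored by NGS enrichment ratio against AAV9.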

[2] = test system: brain; test: Matured TTM-001 and TTM-002 variants, NGS enrichment in mouse brain; assay type: in vivo, mice; conditions: relative to AAV9 control
[3] = NGS fold-enrichment of matured AAV capsid variants, NHP brain, RNA
[4] = NGS fold-enrichment of RNA, NHP brain
[5] = NGS fold-enrichment, DRG of NHPs
[6] = NGS fold-enrichment, NHP liver DNA
[7] = NGS fold-enrichment, NHP liver RNA
[8] = NGS fold-enrichment, NHP muscle
[9] = NGS fold-enrichment, RNA, brain of NHPs
[10] = NGS fold-enrichment, heart of NHPs
[11] = NGS fold-enrichment, liver DNA of NHPs
[12] = NGS fold-enrichment, liver RNA of NHPs
[13] = NGS fold-enrichment, muscle of NHPs
[14] = NGS fold-enrichment, brain of mice
[15] = NGS fold-enrichment, mouse brain

| Sequence | Fold Enrichment relative to AAV9, Brain (NHP) [1, 3] [fold] | Fold Enrichment relative to AAV9, DRG (NHP) ([1]; NHP DRG) [fold] | Fold Enrichment relative to AAV9, Heart (NHP) ([1]; NHP heart) [fold] | Fold Enrichment relative to AAV9, Liver DNA (NHP) ([1]; NHP liver, DNA) [fold] | Fold Enrichment relative to AAV9, Liver RNA (NHP) ([1]; NHP liver, RNA) [fold] | Fold Enrichment relative to AAV9, Muscle (NHP) ([1]; NHP muscle) [fold] | Fold Enrichment relative to AAV9, Brain (Mouse) ([2]; mouse brain) [fold] | Fold Enrichment relative to AAV9, Brain (NHP) [1, 4] [fold] | Fold Enrichment relative to AAV9, DRG (NHP) [1, 5] [fold] | Fold Enrichment relative to AAV9, DRG (NHP) ([1]; NGS fold-enrichment, NHP DRG) [fold] | Fold Enrichment relative to AAV9, Heart (NHP) ([1]; NGS fold-enrichment, NHP heart) [fold] | Fold Enrichment relative to AAV9, Liver DNA (NHP) [1, 6] [fold] | Fold Enrichment relative to AAV9, Liver RNA (NHP) [1, 7] [fold] | Fold Enrichment relative to AAV9, Muscle (NHP) [1, 8] [fold] | Fold Enrichment relative to AAV9, Brain (NHP) [1, 9] [fold] | Fold Enrichment relative to AAV9, Heart (NHP) [1, 10] [fold] | Fold Enrichment relative to AAV9, Liver DNA (NHP) [1, 11] [fold] | Fold Enrichment relative to AAV9, Liver RNA (NHP) [1, 12] [fold] | Fold Enrichment relative to AAV9, Muscle (NHP) [1, 13] [fold] | Fold Enrichment relative to AAV9, Brain (Mouse) [2, 14] [fold] | also measured |
| --- | --- | --- | --- | --- | --- | --- | --- | --- | --- | --- | --- | --- | --- | --- | --- | --- | --- | --- | --- | --- | --- |
| KTVNGGGSPHSKAQNLQT | 52.788 | 0.000 | 0.031 | 0.165 | 0.000 | 0.000 | 83.215 | – | – | – | – | – | – | – | – | – | – | – | – | – | – |
| KAEMGSGSPHSKAQNQQT | – | – | – | – | – | – | – | 83.049 | 0.000 | 0.000 | 0.020 | 0.112 | 0.768 | 0.000 | 83.049 | 0.020 | 0.112 | 0.768 | 0.000 | 135.019 | Fold Enrichment relative to AAV9, Brain (Mouse) [2, 15]: 135.019 fold |
| KTERISGSPHSKAQNQQT | – | – | – | – | – | – | – | 103.692 | 0.000 | 0.000 | 0.000 | 0.370 | 0.062 | 0.000 | 103.692 | 0.000 | 0.370 | 0.062 | 0.000 | 89.637 | Fold Enrichment relative to AAV9, Brain (Mouse) [2, 15]: 89.637 fold |
| KNNLGSGSPHSKAQNQQT | 50.670 | 0.000 | 0.019 | 0.121 | 0.406 | 0.000 | 102.408 | – | – | – | – | – | – | – | – | – | – | – | – | – | – |
| KTERGSGSPHSKAQNQQT | 53.475 | 0.000 | 0.030 | 0.175 | 1.416 | 0.000 | 85.368 | – | – | – | – | – | – | – | – | – | – | – | – | – | – |
| KTINGSGSPHSKAQMPST | 54.986 | 1.691 | 0.039 | 0.202 | 0.450 | 0.028 | 114.331 | – | – | – | – | – | – | – | – | – | – | – | – | – | – |
| KTINGSGSPHSKSQTQQN | – | – | – | – | – | – | – | 104.474 | 0.000 | 0.000 | 0.131 | 0.038 | 0.084 | 0.000 | 104.474 | 0.131 | 0.038 | 0.084 | 0.000 | 54.021 | Fold Enrichment relative to AAV9, Brain (Mouse) [2, 15]: 54.021 fold |
| KTINGHGSPHSKAQNPQT | – | – | – | – | – | – | – | 83.478 | – | 0.000 | 0.288 | 0.260 | 0.000 | 0.219 | – | – | – | – | – | – | Fold Enrichment relative to AAV9, Brain (Mouse) [2, 15]: 11.001 fold |
| KTITGHDSPHKSGQHLQT | – | – | – | – | – | – | – | 137.945 | – | 0.000 | 0.072 | 0.000 | 0.000 | 0.000 | – | – | – | – | – | – | Fold Enrichment relative to AAV9, Brain (Mouse) [2, 15]: 4.187 fold |
| KTEVTSGSPHSKAQNQQT | 54.663 | 0.000 | 0.000 | 0.185 | 0.323 | 0.000 | 81.482 | – | – | – | – | – | – | – | – | – | – | – | – | – | – |
| KTNNGSGSPHSKAQNQQY | – | – | – | – | – | – | – | – | 0.000 | – | – | – | – | – | 68.530 | 0.040 | 0.059 | 0.000 | 0.000 | 82.656 | – |
| KTIPIDGSPHSKAQNQQT | – | – | – | – | – | – | – | – | 0.000 | – | – | – | – | – | 64.421 | 0.047 | 0.936 | 0.234 | 0.000 | 76.826 | – |
| KTINGSGSPHSKAQNNDQ | 53.226 | 0.000 | 0.000 | 0.046 | 0.593 | 0.000 | 59.664 | – | – | – | – | – | – | – | – | – | – | – | – | – | – |
| KTINGSGSPHSKNQWQQT | 50.800 | 0.000 | 0.044 | 0.324 | 0.111 | 0.047 | 65.506 | – | – | – | – | – | – | – | – | – | – | – | – | – | – |
| KNAIGSGSPHSKAQNQQT | 52.516 | 0.000 | 0.000 | 0.198 | 0.165 | 0.000 | 117.939 | – | – | – | – | – | – | – | – | – | – | – | – | – | – |
| KSDKGSGSPHSKAQNQQT | 58.248 | 0.000 | 0.000 | 0.166 | 0.076 | 0.000 | 146.566 | – | – | – | – | – | – | – | – | – | – | – | – | – | – |
